In patent US9850272B2, “Therapeutically active estratrienthiazole derivatives as inhibitors of 17.beta-hydroxy-steroid dehydrogenase, type 1” (FORENDO PHARMA LTD, priority 2013, dated 2017) one finds inhibition data, which are given here for nine molecules.

The structures appear in SMILES notation.

Assay [1] addresses T1, Recombinant Human 17β-HSD2 (Homo sapiens, UniProt P37059).
T1 construct: made in house; host or cells: Sd9 (Sf9) insect cells, baculovirus (Bac to Bac Expression System)
T1 sequence (P37059 1-387): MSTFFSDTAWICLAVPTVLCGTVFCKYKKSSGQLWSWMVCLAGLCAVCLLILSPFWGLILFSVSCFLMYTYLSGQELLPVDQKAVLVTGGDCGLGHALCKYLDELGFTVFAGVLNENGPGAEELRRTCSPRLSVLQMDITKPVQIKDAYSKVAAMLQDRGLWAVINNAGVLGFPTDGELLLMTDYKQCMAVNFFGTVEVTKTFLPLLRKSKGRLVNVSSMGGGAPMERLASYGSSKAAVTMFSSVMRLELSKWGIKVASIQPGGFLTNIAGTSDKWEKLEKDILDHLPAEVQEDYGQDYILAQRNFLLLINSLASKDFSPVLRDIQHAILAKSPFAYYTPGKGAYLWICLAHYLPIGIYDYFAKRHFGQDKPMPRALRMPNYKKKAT
The experiment in a line: Inhibition of recombinant human 17β-HSD2 (conversion of 3H-estradiol to estrone, HPLC). The class given is biochemical. The note with it: inhibitor at 1 μM; 50 nM estradiol, 1 mM NADH, 30 min at RT; read-out: 17β-HSD2 Inhibition % at 1 μM. The protocol:
17β-HSD2 Production and Isolation:
Similarly to 17β-HSD1 the Recombinant baculovirus was generated by the “Bac to Bac Expression System” (Invitrogen). Recombinant bacmid was transfected to Sd9 insect cells using “Cellfectin Reagent” (Invitrogen). 60 h later cells were harvested and supernatant were fractionated by the following protocol: • cells were dissolved into 40 ml of A-buffer (40 mM TRIS, pH8.0, 20% glycerol, 20 μM NAD, 0.4 mM PMSF, 150 mM NaCl, 0.5% dodecyl-β-maltoside+protease inhibitor cocktail) • cells were sonicated • lysate was incubated on ice for 15 min • lysate was centrifuged 5000 rpm 15 min, +4° C. • centrifugation of the supernatant 180.000 g 30 min, +4° C. • pellet was dissolved into 8 ml of A-buffer • not resuspended material was removed by centrifugation 5000 rpm 15 min, +4° C. • the clear supernatant was divided into 100 μl aliquots and were stored frozen until determination of enzymatic activity.
The amount of 17β-HSD2 was analysed by immunoblotting and total protein concentration of each extract batch was determined.
Assay—Inhibition of Recombinant Human 17β-HSD2:
Recombinant protein (4 μg/ml) was incubated in 20 mM KH2PO4 pH 8.5 with 50 nM estradiol (including 800.000 cpm/ml of ^3H-estradiol) and 1 mM NADH for 30 min at RT, in the presence of the potential inhibitor at concentrations 1 μM or 0.1 μM. Inhibitor stock solutions were prepared in DMSO. Final concentration of DMSO was adjusted to 1% in all samples. The enzyme reaction was stopped by addition of 10% trichloroacetic acid (final concentration). Samples were centrifuged in a microtiter plate at 4000 rpm for 10 min. Supernatants were applied to reverse phase HPLC on a Waters Symmetry C18 column, equipped with a Waters Sentry Guard column. Isocratic HPLC runs were performed at RT at a flow rate of 1 ml/min in acetonitrile:water 48:52 as running solvent. Radioactivity was monitored in the eluate by a Packard Flow Scintillation Analyzer. Total radioactivity for estrone and estradiol were determined in each sample and percent conversion of estradiol to estrone was calculated according to the following formula:
(§1) Percent inhibition was calculated flowingly: % inhibition=100−% conversion

For assay [2], the target named is T2, Recombinant Human 17β-HSD1 (Homo sapiens, UniProt P14061).
T2 construct: made in house; host or cells: Sd9 (Sf9) insect cells, baculovirus (Bac to Bac Expression System)
T2 sequence (P14061 1-328): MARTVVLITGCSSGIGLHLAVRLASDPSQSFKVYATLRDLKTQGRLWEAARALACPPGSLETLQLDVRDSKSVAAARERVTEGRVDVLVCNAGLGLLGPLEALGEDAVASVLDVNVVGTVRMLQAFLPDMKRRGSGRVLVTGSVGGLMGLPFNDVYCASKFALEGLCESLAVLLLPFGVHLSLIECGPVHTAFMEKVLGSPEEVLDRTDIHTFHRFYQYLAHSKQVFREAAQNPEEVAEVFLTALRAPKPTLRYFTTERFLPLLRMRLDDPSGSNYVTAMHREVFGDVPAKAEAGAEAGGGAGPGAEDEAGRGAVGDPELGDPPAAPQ
The experiment in a line: Inhibition of recombinant human 17β-HSD1 (conversion of 3H-estrone to estradiol, HPLC). The class given is biochemical. The note with it: inhibitor at 1 μM; 30 nM estrone, 1 mM NADPH, 30 min at RT; read-out: 17β-HDS1 Inhibition % at 1 μM. The protocol:
17β-HSD1 Production and Isolation:
Recombinant baculovirus was generated by the “Bac to Bac Expression System” (Invitrogen). Recombinant bacmid was transfected to Sd9 insect cells using “Cellfectin Reagent” (Invitrogen). 60 h later cells were harvested; the microsomal fraction was isolated as described by Puranen, T. J., Poutanen, M. H., Peltoketo, H. E., Vihko, P. T. and Vihko, R. K. (1994) Site-directed mutagenesis of the putative active site of human 17 β-hydroxysteroid dehydrogenase type 1. Biochem. J. 304: 289-293. Aliquots were stored frozen until determination of enzymatic activity.
Assay—Inhibition of Recombinant Human 17β-HSD1:
Recombinant protein (1 μg/ml) was incubated in 20 mM KH2PO4 pH 7.4 with 30 nM estrone (including 800.000 cpm/ml of ^3H-estrone) and 1 mM NADPH for 30 min at RT, in the presence of the potential inhibitor at concentrations 1 μM or 0.1 μM. Inhibitor stock solutions were prepared in DMSO. Final concentration of DMSO was adjusted to 1% in all samples. The enzyme reaction was stopped by addition of 10% trichloroacetic acid (final concentration). Samples were centrifuged in a microtiter plate at 4000 rpm for 10 min. Supernatants were applied to reverse phase HPLC on a Waters Symmetry C18 column, equipped with a Waters Sentry Guard column. Isocratic HPLC runs were performed at RT at a flow rate of 1 ml/min in acetonitrile:water 48:52 as running solvent. Radioactivity was monitored in the eluate by a Packard Flow Scintillation Analyzer. Total radioactivity for estrone and estradiol were determined in each sample and percent conversion of estrone to estradiol was calculated according to the following formula:
as §1

Broadly, the inhibition is the change of the read-out against control, counted positive when it falls. Consider `Cc1cnc(NC(=O)CC[C@@H]2C[C@H](NCC(C)C)[C@@]3(C)CCC4c5ccc(O)cc5CCC4C23)s1` (stereo partly drawn) [Compound 74, 3-((13S,15R)-3-Hydroxy-17-isobutylamino-13-methyl-7,8,9,11,12,13,14,15,16,17-decahydro-6H-cyclopenta[a]phenanthren-15-yl]-N-(5-methylthiazol-2-yl)propionamide], for which the inhibition at 1 µM in assay [1] was 2%; in assay [2], 80%.
In the same order, the values of `Cc1cnc(NC(=O)CC[C@@H]2C[C@H](NCC(C)C)[C@@]3(C)CCC4c5cc(C(C)(C)C)c(O)cc5CCC4C23)s1` (stereo partly drawn) [Compound 75b, 3-((13S,15R)-2-tert-Butyl-3-Hydroxy-17-isobutylamino-13-methyl-7,8,9,11,12,13,14,15,16,17-decahydro-6H-cyclopenta[a]phenanthren-15-yl]-N-(5-methylthiazol-2-yl)propionamide] are 13% and 77%.
On to `Cc1cnc(NC(=O)CC[C@@H]2CC(NCCO)[C@@]3(C)CCC4c5ccc(O)cc5CCC4C23)s1` (stereo partly drawn) [Compound 78, 3-((13S,15R)-3-Hydroxy-17-(2-hydroxyethylamino)-13-methyl-7,8,9,11,12,13,14,15,16,17-decahydro-6H-cyclopenta[a]phenanthren-15-yl]-N-(5-methylthiazol-2-yl)propionamide], for which the figures for the inhibition at 1 µM in assay [1] and in assay [2] were 2% and 88%, respectively.
The corresponding values for `Cc1cnc(NC(=O)CC[C@@H]2C[C@H](NCc3ccco3)[C@@]3(C)CCC4c5ccc(O)cc5CCC4C23)s1` (stereo partly drawn) [Compound 76, 3-((13S,15R)-17-[(Furan-2-ylmethyl)-amino]-3-hydroxy-13-methyl-7,8,9,11,12,13,14,15,16,17-decahydro-6H-cyclopenta[a]phenanthren-15-yl]-N-(5-methylthiazol-2-yl)propionamide] are 4% and 85%.
As to `Cc1cnc(NC(=O)CC[C@@H]2CC(NCCCN(C)C)[C@@]3(C)CCC4c5ccc(O)cc5CCC4C23)s1` (stereo partly drawn) [Compound 80a, 3-[(13S,15R)-17-(3-Dimethylamino-propylamino)-3-hydroxy-13-methyl-7,8,9,11,12,13,14,15,16,17-decahydro-6H-cyclopenta[a]phenanthren-15-yl]-N-(5-methylthiazol-2-yl)propionamide], the inhibition at 1 µM in assay [1] came to 1%; in assay [2] it was 70%.
The corresponding values for `CC(=O)O[C@H]1C[C@@H](CCC(=O)Nc2ncc(C)s2)C2C3CCc4cc(O)ccc4C3CC[C@@]21C` (stereo partly drawn) [Compound 36] are 3% and 64%.
Regarding `Cc1cnc(NC(=O)CC[C@@H]2CC(O)[C@@]3(C)CCC4c5ccccc5CCC4C23)s1` (stereo partly drawn) [Compound 67, 3-((13S,15R)-17-Hydroxy13-methyl-7,8,9,11,12,13,14,15,16,17-decahydro-6H-cyclopenta[a]phenanthren-15-yl)-N-(5-methylthiazol-2-yl)propanamide], the inhibition at 1 µM was determined as 30% in assay [1] and 74% in assay [2].
The corresponding values for `Cc1cnc(NC(=O)CC[C@@H]2CC(NCCN(C)C)[C@@]3(C)CCC4c5ccc(O)cc5CCC4C23)s1` (stereo partly drawn) [Compound 81, 3-[(13S,15R)-17-(2-Dimethylamino-ethylamino)-3-hydroxy-13-methyl-7,8,9,11,12,13,14,15,16,17-decahydro-6H-cyclopenta[a]phenanthren-15-yl]-N-(5-methylthiazol-2-yl)propionamide] are 2% and 71%.
As to `COc1ccc2c(c1)CCC1C2CC[C@@]2(C)C1[C@H](CCC(=O)Nc1ncc(C)s1)C[C@@H]2OP(=O)(O)O` (stereo partly drawn) [Compound 46, Phosphoric acid mono-{(13S,15R,17S)-3-methoxy-13-methyl-15-[2-(5-methylthiazol-2-ylcarbamoyl)-ethyl]-17-oxo-7,8,9,11,12,13,14,15,16,17-decahydro-6H-cyclopenta[a]phenanthren-17-yl}ester], the inhibition at 1 µM in assay [1] amounted to 1%; in assay [2] it was 84%.
